# Laboratory results published in patent US11779602B2, “Methods of use for CAR T cells” (ENDOCYTE, INC., priority 2018, dated 2023).
# System: FR+ (KB, MDA-MB-231, HOS-FRα^fLuc, THP1-FRβ) tumor cell lines
# Assay: CAR-T cell exhaustion markers and target cell apoptosis in co-culture with EC17-preloaded targets
# Assay type: cell-based, human
# Details: EC17 pre-loading 0.1 or 10 nM, E/T 1:2, day 2
# Protocol: To study CAR-T cell activation in the presence of FR+ tumor cell targets (FIGS. 53A-D), co-culture experiments were initially carried out with MDA-MB-231, THP1-FRβ and HOS-FRα. […] After 24 hours of co-culture, the surface expression of T cell activation markers CD69, CD137 (4-1BB), and PD1 were analyzed by flow cytometry. For T cell exhaustion studies (FIGS. 54A-C), FR+ (KB, MDA-MB-231, HOS-FRα^fLuc, THP1-FRβ) and FR-negative (HOS-143b^fLuc, THP1-FG12) tumor cell lines were used as targets. Here, target cells were incubated on day 0 without or with 0.1 and 10 nM of EC17 for 30 min at 37° C. and the status of EC17 “pre-loading” was assessed by counterstaining cell-surface EC17 with an anti-FITC antibody (FIG. 61A). Three days later, the surface expression of PD1, LAG3, and TIM3 inhibitor receptors on co-cultured CAR-T cells were analyzed and higher frequencies of double- and triple-positive cells were considered approaching an exhausted phenotype.
# To examine antigen-dependent CAR-T cell activation, MDA-MB-231, THP1-FRβ and HOS-FRα cells were preloaded with 100 nM EC17 over 30 min. […] After 24 hours of co-culture, we measured the surface expression of T cell activation markers CD69, CD137 (4-1BB) and PD1 (FIGS. 53A-D). […] Three days later, co-cultured CAR-T cells were measured for upregulation and co-expression of T cell activation/exhaustion markers PD1, LAGS and TIM3. […]
compound,measurement,value
"NC1=NC2N=CC(CNc3ccc(C(=O)N[C@@H](CCC(=O)NCCNC(=S)Nc4ccc(-c5c6ccc(=O)cc-6oc6cc(O)ccc56)c(C(=O)O)c4)C(=O)O)cc3)=NC2C(=O)N1 (stereo partly shown) [EC17, FA-(γ)-ethylenediamine-FITC]",target cell apoptosis (Annexin V+),dose-dependent apoptosis (Annexin V+) was seen in all FR+ tumor cell lines
